The text below walks through data of publication PMC12040169 (PLOS Biology, 2025).

The data set in a line: in vitro. The conditions noted are these: human, hela cells, % viability.
Turning to `COc1ccc([C@@]23CC[C@@H](NC(=O)Nc4ccc(F)cc4)C[C@@H]2N(C)CC3)cc1OC` [CBK036458T], the viability at 28.5 h, 10 µM was found to be 93.5%. Under `O=C(Nc1nsc(-c2ccccc2)n1)c1ccc(F)cc1` [CBK113232] stands 87.8%; under `CNCC1CCN(C(=O)c2ccc(Oc3cccnc3)cc2)C1` (stereo not drawn) [CBK304697], 91.5%. On to `COc1ccc(NC(=O)C2CCCN2c2nc(O)cc(C(F)(F)F)n2)c(OC)c1` (stereo not drawn) [CBK003951], for which the viability at 28.5 h, 10 µM came to 94.9%. Under `CN(C(=S)NCc1ccccc1)C1CC[C@@]2(c3ccc(F)cc3)CCN(C)[C@H]2C1` (stereo partly drawn) [CBK003500C] stands 90.1%.

As for `Fc1cccc(Cl)c1CNc1ccc(CNc2ncn[nH]2)cc1` [CBK267245], the viability at 28.5 h, 10 µM was determined as 93.1%.

As to `CN1CCN(CCOC(=O)N2CCCC(F)(F)C2)CC1` [CBK200208], the viability at 28.5 h, 10 µM was 105%. As for `Cc1ncsc1C(=O)N1CCC2(C/C=C/C[C@H]3COCC[C@H]3NC(=O)[C@@H](CC(C)C)NC2=O)CC1` [CBK292187], the figure is 107%. Turning to `NS(=O)(=O)c1ccc(NC(=O)CSc2ccc3ccccc3c2)cc1` [CBK268203], the viability at 28.5 h, 10 µM was 89.8%. As to `CC1(C)Cc2c(ccc3ccccc23)C(NCC(=O)O)=N1` [CBK262559], the viability at 28.5 h, 10 µM was determined as 97.6%. Regarding `CN(Cc1ccccc1)C(=O)c1ccccc1NC(=O)c1ccccc1` [CBK267818], the viability at 28.5 h, 10 µM worked out at 107%.

For `Cc1c(-c2cccc(NC(=O)c3ccccc3)c2)nc2ncccn12` [CBK287504], the viability at 28.5 h, 10 µM stood at 67.3%.

As for `Cc1cc(OCC(=O)N(C)C)c2c3c(c(=O)oc2c1)CCCC3` [CBK307189], the viability at 28.5 h, 10 µM amounted to 96.3%. For `COc1ccccc1-c1cn2ccnc2c(NCCc2ccccn2)n1` [CBK037980], the viability at 28.5 h, 10 µM was 107%. `Cc1n[nH]c(O)c1C(c1ccc(OC(=O)c2ccccc2)cc1)c1c(C)n[nH]c1O` [CBK265019]: the viability at 28.5 h, 10 µM turned out to be 109%. Under `c1ccc(-c2nn3c(CN4CCOCC4)nnc3c3ccccc23)cc1` [CBK269779] stands 89%.

Regarding `O=C(CSc1nnc2sc3ccccc3n12)N1N=CCC1c1ccccc1` (stereo not drawn) [CBK266527], the viability at 28.5 h, 10 µM was 87.1%. For `COc1ccc(-c2[nH]c3ncccc3c2CN2CCSCC2)cc1` [CBK285338], the viability at 28.5 h, 10 µM was 91.9%. For `O=C(Cn1ccnc1)N1CCCCC1c1nc2ccccc2[nH]1` (stereo not drawn) [CBK283936], the viability at 28.5 h, 10 µM was 107%. Under `Cc1ccccc1-n1ncc2c(=O)n(CC(=O)N3CCCCC3)cnc21` [CBK287688] stands 108%; under `CN1CCC(N(C)C(=O)NC(c2ccccc2)c2ccccc2)C1` (stereo not drawn) [CBK156000], 96.4%. As for `CC(C)CC(=O)Nc1nc(OCC(F)(F)F)cnc1-c1ccc(Cl)cc1Cl` [CBK145356], the viability at 28.5 h, 10 µM was determined as 94.2%. With `CCNC(=O)NC(=O)C1CCN(CCc2ccc(O)c(OC)c2)CC1` [CBK035184], the viability at 28.5 h, 10 µM was 102%. Under `CN1CCN(C(=O)c2ccc(Cl)cc2)CC1` [CBK126096] stands 104%. Under `CNC(=O)c1ccc(NS(=O)(=O)c2ccc(OC(F)(F)F)cc2)cc1` [CBK043495] stands 96.7%. Take `CN(C)c1ccc(CC(=O)N2CCCc3ccccc32)cc1` [CBK200347]: the viability at 28.5 h, 10 µM amounted to 83.6%. In the case of `Cc1ccc2[nH]c(Cc3ccc(NC(=O)c4cccc5c(=O)cc(C)[nH]c45)cc3)nc2c1` [CBK285814], the viability at 28.5 h, 10 µM is 99.5%. As to `Cc1ccc(NC(=O)OCC(F)(F)C(F)F)cc1Cl` [CBK026548], the viability at 28.5 h, 10 µM was found to be 93.1%. With `CCCNC(=O)N1CCC(n2c(C)nc3cccnc32)CC1` [CBK282292], the viability at 28.5 h, 10 µM is 88.9%. In the case of `O=C(O)c1ccccc1-c1ccccc1C(=O)NCCc1ccccc1` [CBK263394], the viability at 28.5 h, 10 µM was determined as 113%. Consider `CCc1noc(C(C)N2CCN(CC(=O)NCc3ccco3)CC2)n1` (stereo not drawn) [CBK305368], for which the viability at 28.5 h, 10 µM came out at 116%. For `O=C(CO)N1CC2(CCN(CCS(=O)(=O)c3ccccc3)CC2)c2ccccc21` [CBK131505], the viability at 28.5 h, 10 µM was 97.9%.

Regarding `COc1ccc(CN2CCC(Oc3nccnc3OCCN3CCOCC3)CC2)cc1` [CBK082922T], the viability at 28.5 h, 10 µM was 90.8%. For the molecule `Cc1cc(C(=O)NCCn2ccnc2C)c2cccc(Cl)c2n1` [CBK282460], the viability at 28.5 h, 10 µM came out at 95.6%.

For the molecule `Nc1cc2ccccc2c(-c2ccc(OC(F)(F)F)cc2)n1` [CBK085725], the viability at 28.5 h, 10 µM came out at 99.4%. Consider `CC(=O)Nc1ccc(CC(C(=O)O)c2ccccc2)cc1` (stereo not drawn) [CBK286600], for which the viability at 28.5 h, 10 µM worked out at 98.8%. On to `CC(CC(=O)N1CCOC(c2nc(C(C)(C)C)n[nH]2)C1)n1cccc1` (stereo not drawn) [CBK305214], for which the viability at 28.5 h, 10 µM stood at 82.8%. `CSc1nccc(N2CCC(NCCCn3ccnn3)CC2)n1` [CBK307076]: the viability at 28.5 h, 10 µM is 92.7%. As for `C[C@H](c1ccccc1)n1c(=O)[nH]c2ncc(-c3cccc4cccnc34)nc21` [CBK064237], the viability at 28.5 h, 10 µM came to 44.4%. As to `COC(=O)C(O)(CC(=O)Nc1ccc(C)c(F)c1)C(F)(F)F` (stereo not drawn) [CBK267440], the viability at 28.5 h, 10 µM amounted to 103%. For the molecule `Cc1nc2cc(C(=O)N3CCC(c4ccncc4)CC3)ccc2s1` [CBK283513], the viability at 28.5 h, 10 µM is 85.7%.

Turning to `Cc1cc(C)nc(N2CCCC(O)(c3nc(C)c(CCOc4ccccc4)s3)CC2)n1` (stereo not drawn) [CBK285924], the viability at 28.5 h, 10 µM is 111%. Under `CC(C)Nc1cc(OCc2ccc(F)cc2)ncn1` [CBK115654] stands 103%.

For `O=C1C(c2ccccc2)=C(c2ccccc2)C(c2ccc(C3=C(c4ccccc4)C(=O)C(c4ccccc4)=C3c3ccccc3)cc2)=C1c1ccccc1` [CBK261220], the viability at 28.5 h, 10 µM came out at 87.4%. As for `CC(C)(C)NC(=O)CN1CCN(C(=O)CSc2n[nH]c(=O)n2C2CC2)CC1` [CBK295641], the viability at 28.5 h, 10 µM was determined as 94.5%. Turning to `O=C(O)c1cc(S(=O)(=O)N2CCOCC2)ccc1F` [CBK268398], the viability at 28.5 h, 10 µM worked out at 106%.

As to `N#Cc1ccc(C(=O)N2CCN3C(=O)[C@H](Cc4ccc(F)cc4)NC(=O)[C@H]3C2)cc1` [CBK289602], the viability at 28.5 h, 10 µM stood at 106%. In the case of `CN(C)c1cccc(COc2cncc(N3CCNCC3)n2)c1` [CBK200004], the viability at 28.5 h, 10 µM came to 82.1%. `c1cc(-c2cnc(N3CCOCC3)c3nccn23)c2cccnc2c1` [CBK091270]: the viability at 28.5 h, 10 µM is 93.6%.

Consider `OC(Cn1nc(-c2ccccc2)cc1-c1ccccc1)Cn1c2ccc(Cl)cc2c2cc(Cl)ccc21` (stereo not drawn) [CBK261418], for which the viability at 28.5 h, 10 µM stood at 84.7%. With `Cc1cc(Oc2ccc(N(C)C)cc2)cc(C2CCCNC2)n1` (stereo not drawn) [CBK283442], the viability at 28.5 h, 10 µM was determined as 101%. On to `Cc1cc2cc(NC(=O)CCc3c(C)n[nH]c3C)ccc2o1` [CBK283077], for which the viability at 28.5 h, 10 µM is 84.2%. As for `O=C1CC(c2ccccc2)CC(=O)C1=CNCCN1CCOCC1` (stereo not drawn) [CBK262522], the figure is 94%. As for `CC(=O)CCc1cc(CCC(N)=O)on1` [CBK023350], the figure is 90.3%. On to `O=C1NC(=O)C(CCCCN2CCCC3(CCN(C(=O)c4ccoc4)C3)C2)N1` (stereo not drawn) [CBK132833], for which the viability at 28.5 h, 10 µM was 96.8%. As to `COc1ccc(C2=CC(c3ccc(Cl)cc3)N3N=CNC3=N2)cc1OC` (stereo not drawn) [CBK287966], the viability at 28.5 h, 10 µM was 84.3%.

Consider `CN(c1ncccc1CNC(=O)c1c[nH]c(=O)c(Cl)c1)C1CCCCC1` [CBK307267], for which the viability at 28.5 h, 10 µM turned out to be 92.6%.

Take `COc1ccccc1C(CN)C1CCCCC1` (stereo not drawn) [CBK009878]: the viability at 28.5 h, 10 µM is 99.7%. As for `CN1C(=O)CC2(C1=O)C(=O)N(CCCOc1ccc(F)cc1)c1ccccc12` (stereo not drawn) [CBK075513], the viability at 28.5 h, 10 µM was found to be 108%. As for `O=C(Nc1ccc(S(=O)(=O)NCCc2ccccc2)cc1)c1ccncc1` [CBK268172], the viability at 28.5 h, 10 µM is 90.3%. As for `CCc1nccnc1OC` [CBK089673], the figure is 101%.

As to `Cc1nn(-c2cccc(Br)c2)c(C)c1[C@@H]1C=C[C@@H](NS(C)(=O)=O)C1` [CBK288806], the viability at 28.5 h, 10 µM was found to be 86.3%. In the case of `O=C(Cc1ccc2c(c1)CCCO2)NCc1ccccc1-n1ccnc1` [CBK281463], the viability at 28.5 h, 10 µM came out at 86.6%.

In the case of `O=C(O)Cc1ccc(NC(=S)Nc2ccc([N+](=O)[O-])cc2)cc1` [CBK266959], the viability at 28.5 h, 10 µM is 98.7%. Under `O=C(c1ccc(F)cc1)N1CCC(c2cc3cccnc3[nH]2)CC1` [CBK285001] stands 96.8%; under `Cc1n[nH]cc1C(=O)NC[C@H]1CC[C@H](c2cc(C(=O)NC(C)C)c3ccccc3n2)CC1` [CBK285862], 96.3%; under `O=C(Nc1nc(-c2ccncc2)cs1)c1sc2ccccc2c1Cl` [CBK287562], 92.1%.

`O=C(NCc1ccccc1)c1cnc2n(c1=O)CCS2` [CBK287371]: the viability at 28.5 h, 10 µM came to 79.7%.

In the case of `Cc1cnc2c(c1)cc(C1CCOCC1)n2CC(=O)N(C)C` [CBK284754], the viability at 28.5 h, 10 µM was 102%.

`c1ccc(N2CCN(c3nc4cc5c(cc4s3)OCCO5)CC2)cc1` [CBK287499]: the viability at 28.5 h, 10 µM was 93.6%. As for `CN(CC(=O)Nc1ccc(N(C)C)cc1)Cc1ccc(F)cc1` [CBK295188], the figure is 86.1%; as for `Cc1c(C(=O)O)sc2nc(C=Cc3cc([N+](=O)[O-])ccc3Cl)[nH]c(=O)c12` [CBK295613], 121%.

In the case of `O=C(CSc1nc2ccccc2[nH]1)n1c2c(c3ccccc31)CCCC2` [CBK263945], the viability at 28.5 h, 10 µM amounted to 92.8%. As to `O=C(Cn1cc(C(=O)Nc2cc(F)ccc2N2CCCC2)ccc1=O)NC1CCCCC1` [CBK285981], the viability at 28.5 h, 10 µM turned out to be 102%. Turning to `CCc1nc2ccc(C(=O)NCCc3c[nH]c4ccccc34)cn2c1N(C)Cc1ccncc1` [CBK145636], the viability at 28.5 h, 10 µM turned out to be 99.7%. For `COc1ccc(N2C(=O)c3ccc(C(=O)Nc4ccccc4C(=O)O)cc3C2=O)cc1O` [CBK262833], the viability at 28.5 h, 10 µM turned out to be 97.8%. `O=C(CSc1ccccc1)Nc1cnc(-c2ccc(F)cc2)c(-c2ccco2)n1` [CBK037196]: the viability at 28.5 h, 10 µM worked out at 101%. Consider `C=CCO[C@@H]1C[C@H]2C(=O)N3CC[C@H](NC(=O)[C@@H](O)c4ccccc4)C[C@H]3C(=O)N2C1` [CBK289556], for which the viability at 28.5 h, 10 µM is 89.6%.
